Reference: the supplement of paper PMC6965134
± gives the standard deviation of the averaged measurements. Blank lines part the entries; values can stand above or below the molecule they belong to.

Assay: TIMS collisional cross section (CCS, N2) of the lipid ion; higher = larger ion cross section
Conditions: ionization mode: negative, one isomer drawn
Procedure: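 Lipid extracts of human plasma (NIST SRM 1950), mouse liver or HeLa cells were separated by nanoflow C18 LC (30 min gradient) and analysed by TIMS-PASEF on a timsTOF Pro. Ion mobility was calibrated with the Agilent tuning mix (negative mode ions) and converted to collisional cross sections (Mason–Schamp, N2).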

[1] = sample type: Mouse Liver, ion (formula + adduct): [C39H72NO8P-H] 1-
[2] = sample type: Mouse Liver, ion (formula + adduct): [C41H74NO8P-H] 1-
[3] = sample type: Human plasma, ion (formula + adduct): [C43H78NO8P-H] 1-
[4] = sample type: Human plasma, ion (formula + adduct): [C41H78NO8P-H] 1-
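Further: lipids from MTBE extraction, five replicate injections per sample, 100 ms TIMS ramp spanning 0.6–1.95 Vs/cm², lipid identity assigned from PASEF MS/MS spectra.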

TIMS collisional cross section (sample type: Mouse Liver, ion (formula + adduct): [C42H72NO8P-H] 1-): 271.6 Å²
Structure (SMILES): CC/C=C\C/C=C\C/C=C\C/C=C\C/C=C\C/C=C\CCC(=O)O[C@H](COC(=O)CCCCCCCCCCCCCC)COP(=O)(O)OCCN [PE 15:0_22:6]

TIMS collisional cross section (sample type: Human plasma, ion (formula + adduct): [C43H74NO8P-H] 1-): 275 Å²
Structure (SMILES): CC/C=C\C/C=C\C/C=C\C/C=C\C/C=C\C/C=C\CCC(=O)OC(COC(=O)CCCCCCCCCCCCCCC)COP(=O)(O)OCCN (stereo not drawn) [PE 16:0@_22:6]

TIMS collisional cross section (sample type: Mouse Liver, ion (formula + adduct): [C37H74NO8P-H] 1-): 263.3 Å²
Structure (SMILES): CCCCCCCCCCCCCCCC(=O)OCC(COP(=O)(O)OCCN)OC(=O)CCCCCCCCCCCCCCC (stereo not drawn) [PE 16:0_16:0]

TIMS collisional cross section (sample type: Human plasma, ion (formula + adduct): [C39H76NO8P-H] 1-): 268.4 Å²
TIMS collisional cross section (sample type: Mouse Liver, ion (formula + adduct): [C39H76NO8P-H] 1-): 268.4 Å²
Structure (SMILES): CCCCCCCC/C=C\CCCCCCCC(=O)OC(COC(=O)CCCCCCCCCCCCCCC)COP(=O)(O)OCCN (stereo not drawn) [PE 16:0_18:1]

TIMS collisional cross section (sample type: Human plasma, ion (formula + adduct): [C39H74NO8P-H] 1-): 266.6 Å²
TIMS collisional cross section (sample type: Mouse Liver, ion (formula + adduct): [C39H74NO8P-H] 1-): 266.6 Å²
Structure (SMILES): CCCCC/C=C\C/C=C\CCCCCCCC(=O)OC(COC(=O)CCCCCCCCCCCCCCC)COP(=O)(O)OCCN (stereo not drawn) [PE 16:0_18:2]

TIMS collisional cross section [1]: 264.9 Å²
Structure (SMILES): CC/C=C\C/C=C\C/C=C\CCCCCCCC(=O)O[C@H](COC(=O)CCCCCCCCCCCCCCC)COP(=O)(O)OCCN [PE 16:0_18:3]

TIMS collisional cross section (sample type: Mouse Liver, ion (formula + adduct): [C40H78NO8P-H] 1-): 271.2 Å²
Structure (SMILES): CCCCCCCCC/C=C\CCCCCCCC(=O)O[C@H](COC(=O)CCCCCCCCCCCCCCC)COP(=O)(O)OCCN [PE 16:0_19:1]

TIMS collisional cross section (sample type: Mouse Liver, ion (formula + adduct): [C41H80NO8P-H] 1-): 275.2 Å²
Structure (SMILES): CCCCCCCC/C=C\CCCCCCCCCC(=O)O[C@H](COC(=O)CCCCCCCCCCCCCCC)COP(=O)(O)OCCN [PE 16:0_20:1]

Structure (SMILES): CCCCC/C=C\C/C=C\C/C=C\C/C=C\CCCC(=O)O[C@H](COC(=O)CCCCCCCCCCCCCCC)COP(=O)(O)OCCN [PE 16:0_20:4]
TIMS collisional cross section [2]: 270.7 ± 0.46 Å²

TIMS collisional cross section [3]: 276.8 Å²
Structure (SMILES): CCCCC/C=C\C/C=C\C/C=C\C/C=C\CCCCCC(=O)O[C@H](COC(=O)CCCCCCCCCCCCCCC)COP(=O)(O)OCCN [PE 16:0_22:4]

TIMS collisional cross section (sample type: Mouse Liver, ion (formula + adduct): [C43H74NO8P-H] 1-): 274.62 ± 0.25 Å²
Structure (SMILES): CC/C=C\C/C=C\C/C=C\C/C=C\C/C=C\C/C=C\CCC(=O)OC(COC(=O)CCCCCCCCCCCCCCC)COP(=O)(O)OCCN (stereo not drawn) [PE 16:0_22:6]

TIMS collisional cross section (sample type: Human plasma, ion (formula + adduct): [C37H72NO8P-H] 1-): 261.6 Å²
TIMS collisional cross section (sample type: Mouse Liver, ion (formula + adduct): [C37H72NO8P-H] 1-): 261.6 Å²
Structure (SMILES): CCCCCC/C=C\CCCCCCCC(=O)OC[C@H](COP(=O)(O)OCCN)OC(=O)CCCCCCCCCCCCCCC [PE 16:1_16:0]

Structure (SMILES): CCCCCC/C=C\CCCCCCCC(=O)OCC(COP(=O)(O)OCCN)OC(=O)CCCCCCC/C=C\CCCCCC (stereo not drawn) [PE 16:1_16:1]
TIMS collisional cross section (sample type: Mouse Liver, ion (formula + adduct): [C37H70NO8P-H] 1-): 259.3 Å²

TIMS collisional cross section (sample type: Mouse Liver, ion (formula + adduct): [C38H72NO8P-H] 1-): 263.2 Å²
Structure (SMILES): CCCCCC/C=C\CCCCCCCC(=O)OC[C@H](COP(=O)(O)OCCN)OC(=O)CCCCCCC/C=C\CCCCCCC [PE 16:1_17:1]

TIMS collisional cross section (sample type: Mouse Liver, ion (formula + adduct): [C41H70NO8P-H] 1-): 267.1 Å²
Structure (SMILES): CC/C=C\C/C=C\C/C=C\C/C=C\C/C=C\CCCC(=O)O[C@H](COC(=O)CCCCCCC/C=C\CCCCCC)COP(=O)(O)OCCN [PE 16:1_20:5]

TIMS collisional cross section (sample type: Mouse Liver, ion (formula + adduct): [C40H76NO8P-H] 1-): 269.4 Å²
Structure (SMILES): CCCCC/C=C\C/C=C\CCCCCCCC(=O)O[C@H](COC(=O)CCCCCCCCCCCCCCCC)COP(=O)(O)OCCN [PE 17:0_18:2]

TIMS collisional cross section (sample type: Mouse Liver, ion (formula + adduct): [C42H76NO8P-H] 1-): 273.9 Å²
Structure (SMILES): CCCCC/C=C\C/C=C\C/C=C\C/C=C\CCCC(=O)O[C@H](COC(=O)CCCCCCCCCCCCCCCC)COP(=O)(O)OCCN [PE 17:0_20:4]

TIMS collisional cross section (sample type: Mouse Liver, ion (formula + adduct): [C40H74NO8P-H] 1-): 267.7 Å²
Structure (SMILES): CCCCC/C=C\C/C=C\CCCCCCCC(=O)O[C@H](COC(=O)CCCCCCC/C=C\CCCCCCC)COP(=O)(O)OCCN [PE 17:1_18:2]

TIMS collisional cross section (sample type: Mouse Liver, ion (formula + adduct): [C42H74NO8P-H] 1-): 271.6 Å²
Structure (SMILES): CCCCC/C=C\C/C=C\C/C=C\C/C=C\CCCC(=O)O[C@H](COC(=O)CCCCCCC/C=C\CCCCCCC)COP(=O)(O)OCCN [PE 17:1_20:4]

TIMS collisional cross section (sample type: Mouse Liver, ion (formula + adduct): [C44H74NO8P-H] 1-): 275.5 Å²
Structure (SMILES): CC/C=C\C/C=C\C/C=C\C/C=C\C/C=C\C/C=C\CCC(=O)O[C@H](COC(=O)CCCCCCC/C=C\CCCCCCC)COP(=O)(O)OCCN [PE 17:1_22:6]

TIMS collisional cross section [4]: 273.4 Å²
Structure (SMILES): CCCCC/C=C\C/C=C\CCCCCCCC(=O)OC(COC(=O)CCCCCCCCCCCCCCCCC)COP(=O)(O)OCCN (stereo not drawn) [PE 18:0@_18:2]

TIMS collisional cross section (sample type: Human plasma, ion (formula + adduct): [C45H78NO8P+AcO] 1-): 297.5 Å²
Structure (SMILES): CC/C=C\C/C=C\C/C=C\C/C=C\C/C=C\C/C=C\CCC(=O)OC(COC(=O)CCCCCCCCCCCCCCCCC)COP(=O)(O)OCCN (stereo not drawn) [PE 18:0@_22:6]

TIMS collisional cross section (sample type: Mouse Liver, ion (formula + adduct): [C39H78NO8P-H] 1-): 269.5 Å²
Structure (SMILES): CCCCCCCCCCCCCCCCCC(=O)OC[C@H](COP(=O)(O)OCCN)OC(=O)CCCCCCCCCCCCCCC [PE 18:0_16:0]

TIMS collisional cross section (sample type: Mouse Liver, ion (formula + adduct): [C41H82NO8P-H] 1-): 275.1 Å²
Structure (SMILES): CCCCCCCCCCCCCCCCCC(=O)OCC(COP(=O)(O)OCCN)OC(=O)CCCCCCCCCCCCCCCCC (stereo not drawn) [PE 18:0_18:0]

TIMS collisional cross section (sample type: Human plasma, ion (formula + adduct): [C41H80NO8P-H] 1-): 274.6 Å²
Structure (SMILES): CCCCCCCC/C=C\CCCCCCCC(=O)OC(COC(=O)CCCCCCCCCCCCCCCCC)COP(=O)(O)OCCN (stereo not drawn) [PE 18:0_18:1]

TIMS collisional cross section (sample type: Mouse Liver, ion (formula + adduct): [C41H78NO8P-H] 1-): 272.8 Å²
Structure (SMILES): CCCCC/C=C\C/C=C\CCCCCCCC(=O)OC(COC(=O)CCCCCCCCCCCCCCCCC)COP(=O)(O)OCCN (stereo not drawn) [PE 18:0_18:2]

TIMS collisional cross section (sample type: Mouse Liver, ion (formula + adduct): [C42H82NO8P-H] 1-): 278 Å²
Structure (SMILES): CCCCCCCCC/C=C\CCCCCCCC(=O)O[C@H](COC(=O)CCCCCCCCCCCCCCCCC)COP(=O)(O)OCCN [PE 18:0_19:1]

TIMS collisional cross section (sample type: Mouse Liver, ion (formula + adduct): [C43H84NO8P-H] 1-): 282 Å²
Structure (SMILES): CCCCCCCC/C=C\CCCCCCCCCC(=O)O[C@H](COC(=O)CCCCCCCCCCCCCCCCC)COP(=O)(O)OCCN [PE 18:0_20:1]

TIMS collisional cross section [3]: 276.8 Å²
TIMS collisional cross section (sample type: Mouse Liver, ion (formula + adduct): [C43H78NO8P-H] 1-): 276.57 ± 0.29 Å²
Structure (SMILES): CCCCC/C=C\C/C=C\C/C=C\C/C=C\CCCC(=O)O[C@H](COC(=O)CCCCCCCCCCCCCCCCC)COP(=O)(O)OCCN [PE 18:0_20:4]

TIMS collisional cross section (sample type: Human plasma, ion (formula + adduct): [C45H78NO8P-H] 1-): 281.8 Å²
Structure (SMILES): CC/C=C\C/C=C\C/C=C\C/C=C\C/C=C\C/C=C\CCC(=O)OC(COC(=O)CCCCCCCCCCCCCCCCC)COP(=O)(O)OCCN (stereo not drawn) [PE 18:0_22:6]

TIMS collisional cross section [4]: 272.3 Å²
Structure (SMILES): CCCCCCCC/C=C\CCCCCCCC(=O)OCC(COP(=O)(O)OCCN)OC(=O)CCCCCCC/C=C\CCCCCCCC (stereo not drawn) [PE 18:1_18:1]

TIMS collisional cross section (sample type: Human plasma, ion (formula + adduct): [C41H76NO8P-H] 1-): 272 Å²
Structure (SMILES): CCCCC/C=C\C/C=C\CCCCCCCC(=O)O[C@H](COC(=O)CCCCCCC/C=C\CCCCCCCC)COP(=O)(O)OCCN [PE 18:1_18:2]

TIMS collisional cross section (sample type: Mouse Liver, ion (formula + adduct): [C45H84NO8P-H] 1-): 284.1 Å²
Structure (SMILES): CCCCC/C=C\C/C=C\CCCCCCCCCCCC(=O)O[C@H](COC(=O)CCCCCCC/C=C\CCCCCCCC)COP(=O)(O)OCCN [PE 18:1_22:2]

TIMS collisional cross section [1]: 264 Å²
Structure (SMILES): CCCCC/C=C\C/C=C\CCCCCCCC(=O)OC[C@H](COP(=O)(O)OCCN)OC(=O)CCCCCCC/C=C\CCCCCC [PE 18:2_16:1@]

TIMS collisional cross section (sample type: Human plasma, ion (formula + adduct): [C39H72NO8P-H] 1-): 264.3 Å²
TIMS collisional cross section [1]: 264.3 Å²
Structure (SMILES): CCCCC/C=C\C/C=C\CCCCCCCC(=O)OC[C@H](COP(=O)(O)OCCN)OC(=O)CCCCCCC/C=C\CCCCCC [PE 18:2_16:1]

TIMS collisional cross section (sample type: Human plasma, ion (formula + adduct): [C41H74NO8P-H] 1-): 268.8 Å²
TIMS collisional cross section [2]: 268.8 Å²
Structure (SMILES): CCCCC/C=C\C/C=C\CCCCCCCC(=O)OCC(COP(=O)(O)OCCN)OC(=O)CCCCCCC/C=C\C/C=C\CCCCC (stereo not drawn) [PE 18:2_18:2]

TIMS collisional cross section (sample type: Human plasma, ion (formula + adduct): [C41H74NO8P+AcO] 1-): 282.4 Å²
Structure (SMILES): CC/C=C\C/C=C\C/C=C\C/C=C\CCCCC(=O)OC[C@H](COP(=O)(O)OCCN)OC(=O)CCCCCCCCCCCCCCCCC [PE 18:4_18:0@]
